In patent US12570642B2, “GLP-IR modulating compounds” (Gilead Sciences, Inc., priority 2021, dated 2026):

Target: GLP-1R (Homo sapiens, UniProt P43220)
Assay: GLP-1R Activation - cAMP Assay
Assay type: cell-based
Conditions: cAMP increase in CHO cells stably expressing GLP-1R; each compound run on one of the two cAMP assays (Assay 1 or Assay 2, not specified)
Outline: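 CHO cells stably expressing GLP-1R, plated at 1,000 cells/well overnight, then equilibrated 1 h in HBSS with 20 mM Hepes and 0.1% BSA. Agonist added as 10-point dose response for 30 min at 37 °C. cAMP measured by HTRF (Cisbio Gs Dynamic kit); EC50 from sigmoidal fit.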

Chain of GLP-1R (P43220 24-463): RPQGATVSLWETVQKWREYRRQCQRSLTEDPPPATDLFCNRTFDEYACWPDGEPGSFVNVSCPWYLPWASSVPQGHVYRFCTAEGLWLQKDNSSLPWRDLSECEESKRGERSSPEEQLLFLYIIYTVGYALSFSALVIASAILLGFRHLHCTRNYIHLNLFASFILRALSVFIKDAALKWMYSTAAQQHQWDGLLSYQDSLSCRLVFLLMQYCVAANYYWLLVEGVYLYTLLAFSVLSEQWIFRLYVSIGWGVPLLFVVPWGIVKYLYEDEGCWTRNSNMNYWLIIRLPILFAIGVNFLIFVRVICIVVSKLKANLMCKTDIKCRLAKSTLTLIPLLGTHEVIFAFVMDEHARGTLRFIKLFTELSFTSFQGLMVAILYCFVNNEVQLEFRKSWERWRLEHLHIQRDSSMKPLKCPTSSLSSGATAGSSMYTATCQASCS

SMILES | EC50 [nM]
CC1(C)COC[C@H]1n1c(Cc2cc(F)c(-c3cccc(OCc4cnc(-n5ccnn5)cc4Cl)n3)cc2F)nc2c(F)cc(C(=O)O)cc21 [Example 171, (S)-2-(4-(6-((4-chloro-6-(1H-1,2,3-triazol-1-yl)pyridin-3-yl)methoxy)pyridin-2-yl)-2,5-difluorobenzyl)-1-(4,4-dimethyltetrahydrofuran-3-yl)-4-fluoro-1H-benzo[d]imidazole-6-carboxylic Acid] | 0.05
N#Cc1ccc(COc2cccc(-c3cc(F)c(Cc4nc5ccc(C(=O)O)cc5n4[C@H]4COC[C@H]4CF)cc3F)n2)c(F)c1 [Example 172] | 0.129
CC1(C)COCC1n1c(Cc2cc(F)c(-c3cccc(OCc4cnc(-n5ccnn5)cc4Cl)n3)cc2F)nc2c(F)cc(C(=O)O)cc21 (stereo not drawn) [Example 173, 2-(4-(6-((4-chloro-6-(1H-1,2,3-triazol-1-yl)pyridin-3-yl)methoxy)pyridin-2-yl)-2,5-difluorobenzyl)-1-(4,4-dimethyltetrahydrofuran-3-yl)-4-fluoro-1H-benzo[d]imidazole-6-carboxylic Acid] | 0.018
CC1(C)COCC1n1c(Cc2cc(F)c(-c3cccc(OCc4cnc(-n5ccnc5)cc4Cl)n3)cc2F)nc2c(F)cc(C(=O)O)cc21 (stereo not drawn) [Example 174, 2-(4-(6-((4-chloro-6-(1H-imidazol-1-yl)pyridin-3-yl)methoxy)pyridin-2-yl)-2,5-difluorobenzyl)-1-(4,4-dimethyltetrahydrofuran-3-yl)-4-fluoro-1H-benzo[d]imidazole-6-carboxylic Acid] | 0.051
CC1(C)COCC1n1c(Cc2cc(F)c(-c3cccc(OCc4ccc(C(F)(F)F)cc4F)n3)cc2F)nc2c(F)cc(C(=O)O)cc21 (stereo not drawn) [Example 175, 2-(2,5-difluoro-4-(6-((2-fluoro-4-(trifluoromethyl)benzyl)oxy)pyridin-2-yl)benzyl)-1-(4,4-dimethyltetrahydrofuran-3-yl)-4-fluoro-1H-benzo[d]imidazole-6-carboxylic Acid] | 0.106
CC1(C)COC[C@H]1n1c(Cc2cc(F)c(-c3ccc(F)c(OCc4ccc(-n5ccnn5)cc4)n3)cc2F)nc2c(F)cc(C(=O)O)cc21 [Example 177, (S)-2-(4-(6-((4-(1H-1,2,3-triazol-1-yl)benzyl)oxy)-5-fluoropyridin-2-yl)-2,5-difluorobenzyl)-1-(4,4-dimethyltetrahydrofuran-3-yl)-4-fluoro-1H-benzo[d]imidazole-6-carboxylic Acid] | 0.021
Cc1cc(Cc2nc3ccc(C(=O)O)cc3n2[C@@H]2COCC2(C)C)c(F)cc1-c1cccc(OCc2ccc(C#N)cc2)n1 [Example 179, (S)-2-(4-(6-((4-cyanobenzyl)oxy)pyridin-2-yl)-2-fluoro-5-methylbenzyl)-1-(4,4-dimethyltetrahydrofuran-3-yl)-1H-benzo[d]imidazole-6-carboxylic Acid] | 0.064
CC1(C)COC[C@H]1n1c(Cc2cc(F)c(-c3ccc(F)c(OCc4ccc(-n5ccnn5)cc4)n3)cc2F)nc2ccc(C(=O)O)cc21 [Example 181, (S)-2-(4-(6-((4-(1H-1,2,3-triazol-1-yl)benzyl)oxy)-5-fluoropyridin-2-yl)-2,5-difluorobenzyl)-1-(4,4-dimethyltetrahydrofuran-3-yl)-1H-benzo[d]imidazole-6-carboxylic Acid] | 0.025
CC1(C)COC[C@H]1n1c(Cc2cc(F)c(-c3ccnc(OCc4ccc(-n5ccnn5)cc4)n3)cc2F)nc2ccc(C(=O)O)cc21 [Example 182, (S)-2-(4-(2-((4-(1H-1,2,3-triazol-1-yl)benzyl)oxy)pyrimidin-4-yl)-2,5-difluorobenzyl)-1-(4,4-dimethyltetrahydrofuran-3-yl)-1H-benzo[d]imidazole-6-carboxylic Acid] | 0.178
CC1(C)COC[C@H]1n1c(Cc2cc(F)c(-c3cccc(OCc4ccc(-n5ccnn5)cc4)n3)cc2F)nc2ccc(C(=O)O)cc21 [Example 183, (S)-2-(4-(6-((4-(1H-1,2,3-triazol-1-yl)benzyl)oxy)pyridin-2-yl)-2,5-difluorobenzyl)-1-(4,4-dimethyltetrahydrofuran-3-yl)-1H-benzo[d]imidazole-6-carboxylic Acid] | 0.129
N#Cc1ccc(COc2cccc(-c3cc(F)c(Cc4nc5ccc(C(=O)O)cc5n4[C@@H]4COC[C@@H]4COC(F)F)cc3F)n2)c(F)c1 [Example 185, 2-(4-(6-((4-cyano-2-fluorobenzyl)oxy)pyridin-2-yl)-2,5-difluorobenzyl)-1-((3S,4R)-4-((difluoromethoxy)methyl)tetrahydrofuran-3-yl)-1H-benzo[d]imidazole-6-carboxylic Acid] | 0.594
CC1(C)COC[C@H]1n1c(Cc2cc(F)c(-c3cccc(OCc4ccc(-n5ccnn5)cc4)n3)cc2F)nc2c(F)cc(C(=O)O)cc21 [Example 186, (S)-2-(4-(6-((4-(1H-1,2,3-triazol-1-yl)benzyl)oxy)pyridin-2-yl)-2,5-difluorobenzyl)-1-(4,4-dimethyltetrahydrofuran-3-yl)-4-fluoro-1H-benzo[d]imidazole-6-carboxylic acid] | 0.018
N#Cc1ccc(COc2cccc(-c3cc(F)c(Cc4nc5ccc(C(=O)O)cc5n4[C@@H]4C[C@@H]5CC[C@H]4O5)cc3F)n2)c(F)c1 [Example 187, 1-((1R,2R,4S)-7-oxabicyclo[2.2.1]heptan-2-yl)-2-(4-(6-((4-cyano-2-fluorobenzyl)oxy)pyridin-2-yl)-2,5-difluorobenzyl)-1H-benzo[d]imidazole-6-carboxylic acid] | 0.391
CC1(C)COC[C@H]1n1c(Cc2cc(F)c(-c3ccc(F)c(OCc4ccc(C#N)cc4)n3)cc2F)nc2ccc(C(=O)O)cc21 [Example 188, (S)-2-(4-(6-((4-cyanobenzyl)oxy)-5-fluoropyridin-2-yl)-2,5-difluorobenzyl)-1-(4,4-dimethyltetrahydrofuran-3-yl)-1H-benzo[d]imidazole-6-carboxylic acid] | 0.032
CC1(C)COC[C@H]1n1c(Cc2cc(F)c(-c3ccnc(OCc4ccc(C#N)cc4)n3)cc2F)nc2ccc(C(=O)O)cc21 [Example 193, (S)-2-(4-(2-((4-cyanobenzyl)oxy)pyrimidin-4-yl)-2,5-difluorobenzyl)-1-(4,4-dimethyltetrahydrofuran-3-yl)-1H-benzo[d]imidazole-6-carboxylic acid] | 0.132
CC(F)(F)c1ccc(COc2cccc(-c3cc(F)c(Cc4nc5ccc(C(=O)O)cc5n4[C@@H]4COCC4(C)C)cc3F)n2)nc1 [Example 195, (S)-2-(4-(6-((5-(1,1-difluoroethyl)pyridin-2-yl)methoxy)pyridin-2-yl)-2,5-difluorobenzyl)-1-(4,4-dimethyltetrahydrofuran-3-yl)-1H-benzo[d]imidazole-6-carboxylic acid] | 0.539

More lines, in order of falling EC50, values ahead:

EC50 [nM] | SMILES
0.508 | CC1(C)COC[C@H]1n1c(Cc2c(F)cc(-c3ccnc(OCc4ccc(Cl)cc4F)n3)c(F)c2F)nc2c(F)cc(C(=O)O)cc21 [Example 196, (S)-2-(4-(2-((4-chloro-2-fluorobenzyl)oxy)pyrimidin-4-yl)-2,3,6-trifluorobenzyl)-1-(4,4-dimethyltetrahydrofuran-3-yl)-4-fluoro-1H-benzo[d]imidazole-6-carboxylic acid]
0.499 | Cc1cc(Cc2nc3ccc(C(=O)O)cc3n2[C@@H]2COCC2(C)C)c(F)cc1-c1ccnc(OCc2ccc(C#N)cc2)n1 [Example 178, (S)-2-(4-(2-((4-cyanobenzyl)oxy)pyrimidin-4-yl)-2-fluoro-5-methylbenzyl)-1-(4,4-dimethyltetrahydrofuran-3-yl)-1H-benzo[d]imidazole-6-carboxylic Acid]
0.444 | N#Cc1ccc(COc2cccc(-c3cc(F)c(Cc4nc5ccc(C(=O)O)cc5n4[C@H]4COC[C@H]4C4CC4)cc3F)n2)c(F)c1 [Example 192, 2-(4-(6-((4-cyano-2-fluorobenzyl)oxy)pyridin-2-yl)-2,5-difluorobenzyl)-1-((3R,4S)-4-cyclopropyltetrahydrofuran-3-yl)-1H-benzo[d]imidazole-6-carboxylic acid]
0.353 | N#Cc1ccc(COc2cccc(-c3cc(F)c(Cc4nc5ccc(C(=O)O)cc5n4[C@@H]4COC[C@@H]4C4CC4)cc3F)n2)c(F)c1 [Example 191, 2-(4-(6-((4-cyano-2-fluorobenzyl)oxy)pyridin-2-yl)-2,5-difluorobenzyl)-1-((3S,4R)-4-cyclopropyltetrahydrofuran-3-yl)-1H-benzo[d]imidazole-6-carboxylic acid]
0.265 | CC1(C)COC[C@H]1n1c(Cc2cc(F)c(-c3ccnc(OCc4ccc(C#N)cc4)n3)cc2F)nc2c(F)cc(C(=O)O)cc21 [Example 194, (S)-2-(4-(2-((4-cyanobenzyl)oxy)pyrimidin-4-yl)-2,5-difluorobenzyl)-1-(4,4-dimethyltetrahydrofuran-3-yl)-4-fluoro-1H-benzo[d]imidazole-6-carboxylic acid]
0.149 | N#Cc1ccc(COc2cccc(-c3cc(F)c(Cc4nc5ccc(C(=O)O)cc5n4[C@H]4COC[C@@H]4C4CC4)cc3F)n2)c(F)c1 [Example 189, 2-(4-(6-((4-cyano-2-fluorobenzyl)oxy)pyridin-2-yl)-2,5-difluorobenzyl)-1-((3R,4R)-4-cyclopropyltetrahydrofuran-3-yl)-1H-benzo[d]imidazole-6-carboxylic acid]
0.089 | Cc1cc(Cc2nc3ccc(C(=O)O)cc3n2[C@@H]2COCC2(C)C)c(F)cc1-c1ccc(F)c(OCc2ccc(C#N)cc2)n1 [Example 180, (S)-2-(4-(6-((4-cyanobenzyl)oxy)-5-fluoropyridin-2-yl)-2-fluoro-5-methylbenzyl)-1-(4,4-dimethyltetrahydrofuran-3-yl)-1H-benzo[d]imidazole-6-carboxylic Acid]
0.061 | N#Cc1ccc(COc2cccc(-c3cc(F)c(Cc4nc5ccc(C(=O)O)cc5n4[C@@H]4COC[C@H]4C4CC4)cc3F)n2)c(F)c1 [Example 190, 2-(4-(6-((4-cyano-2-fluorobenzyl)oxy)pyridin-2-yl)-2,5-difluorobenzyl)-1-((3S,4S)-4-cyclopropyltetrahydrofuran-3-yl)-1H-benzo[d]imidazole-6-carboxylic acid]
